Test results taken from PubChem BioAssay (NCI).
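Interpolation was linear, between the two tested concentrations surrounding the appropriate level; five concentrations were tested over 48 hours in 96-well plates. TGI: concentration producing complete growth inhibition.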

Columns and labels:
Test in all cases: NCI tumour cell line growth inhibition, 48 h
SR leukemia = system: SR leukemia
OVCAR-5 ovarian = system: OVCAR-5 ovarian
SW-620 colon = system: SW-620 colon
MDA-MB-435 = system: MDA-MB-435
CAKI-1 renal = system: CAKI-1 renal
HOP-92 NSCLC = system: HOP-92 NSCLC
SK-OV-3 ovarian = system: SK-OV-3 ovarian
IGROV1 ovarian = system: IGROV1 ovarian
KM12 colon = system: KM12 colon
SF-295 CNS = system: SF-295 CNS

SMILES	TGI (SR leukemia)	TGI (OVCAR-5 ovarian)	TGI (SW-620 colon)	TGI (MDA-MB-435)	TGI (CAKI-1 renal)	TGI (HOP-92 NSCLC)	TGI (SK-OV-3 ovarian)	TGI (IGROV1 ovarian)	TGI (KM12 colon)	TGI (SF-295 CNS)
C=C1CC(O)C2C(=C)C(=O)OC2C2C(C)C(=O)CC12 (stereo not given)	53.2 µM	30.1 µM	30.7 µM	33.1 µM	16.6 µM	33.8 µM	> 100 µM	36.2 µM	56.9 µM	68.9 µM
Fc1ccc2c(c1)nc1n2C(c2c(F)cccc2F)SC1 (stereo not given)	58.5 µM	> 100 µM	> 100 µM	> 100 µM	> 100 µM	> 100 µM	> 100 µM	> 100 µM	64.4 µM	> 100 µM
CC(C)=CCC[C@@H](C)C1=C(O)C(Nc2ccccc2)=C(C)C(=O)C1=O	> 100 µM	> 100 µM	> 100 µM	> 100 µM	56.8 µM	> 78.3 µM	> 96.2 µM	> 100 µM	> 100 µM	32.4 µM
Cc1ccc2c(c1)Nc1ccccc1P2(=O)O	> 100 µM	> 100 µM	> 100 µM	> 100 µM	> 100 µM	> 100 µM	> 100 µM	> 100 µM	> 100 µM	> 100 µM
CCN(CC)C(=O)c1cc([N+](=O)[O-])c(=O)n2c1[nH]c1ccccc12	> 100 µM	> 100 µM	> 100 µM	> 100 µM	> 100 µM	> 100 µM	> 100 µM	> 100 µM	> 100 µM	> 100 µM
COc1ccc(C2=Nc3c(nc(SC)[nH]c3=O)NC(c3ccccc3)C2)cc1 (stereo not given)	> 100 µM	> 100 µM	> 100 µM	> 100 µM	31 µM	> 100 µM	51.9 µM	55.6 µM	30.2 µM	60.4 µM
CC(C)OP(=O)(OC(C)C)/C(C#N)=C/c1c[nH]c2ccccc12	> 100 µM	> 100 µM	> 100 µM	> 100 µM	> 100 µM	> 100 µM	> 100 µM	> 100 µM	> 100 µM	> 100 µM
O=C1Nc2ccccc2SC1=C(C(=O)c1ccccc1)C(=O)c1ccccc1	> 100 µM	> 91.1 µM	> 100 µM	55.6 µM	> 100 µM	99.9 µM	65.3 µM	> 100 µM	> 100 µM	57.5 µM
CC1=NN2CCC(=O)N=C2S1	> 100 µM	> 100 µM	> 100 µM	> 100 µM	> 100 µM	> 100 µM	> 100 µM	> 100 µM	> 100 µM	> 100 µM
CSc1c(C)n([O-])c2cc(Cl)c(Cl)cc2[n+]1=O	5.69 µM	29.8 µM	42.9 µM	36.7 µM	32.5 µM	30.3 µM	> 100 µM	30.8 µM	> 60.7 µM	> 100 µM
CCCCCCCCCCCCCCCCCCNc1nc(=O)n(C2CC(OP(=O)(O)OCC3OC(n4cc(F)c(=O)[nH]c4=O)CC3O)C(CO)O2)cc1F (stereo not given)	35.1 µM	> 100 µM	> 100 µM	> 100 µM	> 100 µM	> 100 µM	> 100 µM	> 100 µM	27.8 µM	38.5 µM
CC1C(c2ccccc2)NC(c2ccccc2)CC1(N)C#N (stereo not given)	> 100 µM	> 100 µM	> 100 µM	> 100 µM	> 100 µM	> 100 µM	> 100 µM	> 100 µM	> 100 µM	> 100 µM
COc1ccc(/N=N/C(=NNC(=O)c2ccc(C)cc2)c2ccc(N(C)C)cc2)cc1	88.7 µM	> 100 µM	> 100 µM	62.7 µM	> 100 µM	> 100 µM	> 100 µM	> 100 µM	> 100 µM	> 100 µM
